Measurements: the supplement of paper PMC11061612

Key:
Experiment in all cases: Bliss excess, mean over the matrix (fraction); higher = more synergy
[1] = test system: HH (T-Cell Non-Hodgkin's Lymphoma)
Method in brief: (§1)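 Bliss excess equals the observed combination effect minus the expected value EA + EB − EA·EB, where EA and EB are the effects of each agent alone. Combination Emax is the second-highest inhibition within the matrix. Inhibition was scaled from CellTiter-Glo 2.0 luminescence, with 0 set by vehicle wells and 1 by blank wells, after 72 hours of two-drug dosing of cells plated in 1536-well plates.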

[2] = test system: ALL-PO (B-Lymphoblastic Leukemia)
Method in brief: as §1

[3] = test system: LOXIMVI (Melanoma)
Method in brief: as §1

[4] = test system: HuH-7 (Hepatocellular Carcinoma)
Method in brief: as §1

[5] = test system: LCLC-97TM1 (Non-Small Cell Lung Carcinoma)
Method in brief: as §1

[6] = test system: FTC-133 (Thyroid Gland Carcinoma)
Method in brief: as §1

[7] = test system: TGBC1TKB (Biliary Tract Carcinoma)
Method in brief: as §1

[8] = test system: OVCAR-5 (Ovarian Carcinoma)
Method in brief: as §1

[9] = test system: BE2-M17 (Neuroblastoma)
Method in brief: as §1

[10] = test system: SAS (Oral Cavity Carcinoma)
Method in brief: as §1

[11] = test system: NCI-H2722 (Mesothelioma)
Method in brief: as §1

[12] = test system: Hs-746T (Gastric Carcinoma)
Method in brief: as §1

[13] = test system: NUGC-4 (Gastric Carcinoma)
Method in brief: as §1

[14] = test system: LNZTA3WT4 (Low Grade Glioma)
Method in brief: as §1

[15] = test system: KMRC-20 (Kidney Carcinoma)
Method in brief: as §1

[16] = test system: WSU-NHL (B-Cell Non-Hodgkin's Lymphoma)
Method in brief: as §1

[17] = test system: HeLa (Cervical Carcinoma)
Method in brief: as §1

[18] = test system: HuCCT1 (Biliary Tract Carcinoma)
Method in brief: as §1

[19] = test system: BPH-1 (Non-Cancerous)
Method in brief: as §1

[20] = test system: L-428 (Hodgkin's Lymphoma)
Method in brief: as §1

Row | SMILES | Bliss excess [1] | Bliss excess [2] | Bliss excess [3] | Bliss excess [4] | Bliss excess [5] | Bliss excess [6] | Bliss excess [7] | Bliss excess [8] | Bliss excess [9] | Bliss excess [10] | Bliss excess [11] | Bliss excess [12] | Bliss excess [13] | Bliss excess [14] | Bliss excess [15] | Bliss excess [16] | Bliss excess [17] | Bliss excess [18] | Bliss excess [19] | Bliss excess [20]
1 | C=CCn1c(=O)c2cnc(Nc3ccc(N4CCN(C)CC4)cc3)nc2n1-c1cccc(C(C)(C)O)n1 [AZD1775] + O=C(c1cc(Cc2n[nH]c(=O)c3ccccc23)ccc1F)N1CCN(C(=O)C2CC2)CC1 [Olaparib] (first compound max 1 µM, partner max 10 µM) | -0.0449 | 0.0063 | -0.0897 | -0.0107 | -0.0833 | -0.0645 | -0.0558 | -0.041 | -0.0486 | -0.0939 | -0.0143 | -0.0594 | -0.0481 | -0.0395 | -0.112 | -0.025 | 0.0346 | -0.0149 | -0.0199 | -0.0252
2 | CCN(CCO)CCCOc1ccc2c(Nc3cc(CC(=O)Nc4cccc(F)c4)[nH]n3)ncnc2c1 [AZD2811] + C=CCn1c(=O)c2cnc(Nc3ccc(N4CCN(C)CC4)cc3)nc2n1-c1cccc(C(C)(C)O)n1 [AZD1775] (first compound max 1 µM, partner max 1 µM) | -0.0179 | 0.0382 | 0.0351 | -0.0232 | 0.033 | 0.0641 | -0.0195 | -0.0616 | 0.0436 | -0.0526 | 0.023 | 0.0312 | -0.0708 | -0.0501 | -0.0562 | -0.0761 | 0.0278 | -0.0344 | -0.0007 | 0.0106
3 | CCN(CCO)CCCOc1ccc2c(Nc3cc(CC(=O)Nc4cccc(F)c4)[nH]n3)ncnc2c1 [AZD2811] + C[C@@H]1COCCN1C2=NC(=NC(=C2)C3(CC3)[S@](=N)(=O)C)C4=C5C=CNC5=NC=C4 [AZD6738] (first compound max 1 µM, 7x7, partner max 10 µM) | -0.033 | -0.0288 | -0.0763 | -0.0453 | 0.0116 | 0.0103 | -0.0184 | -0.0429 | 0.0002 | -0.0354 | 0.006 | -0.0706 | -0.0565 | -0.0315 | -0.0667 | -0.0665 | -0.0743 | -0.0767 | -0.0111 | 0.0145
4 | CCN(CCO)CCCOc1ccc2c(Nc3cc(CC(=O)Nc4cccc(F)c4)[nH]n3)ncnc2c1 [AZD2811] + O=C(c1cc(Cc2n[nH]c(=O)c3ccccc23)ccc1F)N1CCN(C(=O)C2CC2)CC1 [Olaparib] (first compound max 1 µM, 7x7, partner max 10 µM) | -0.0353 | 0.0133 | 0.0073 | -0.072 | 0.0148 | -0.0174 | -0.0368 | -0.0048 | 0.0317 | 0.0114 | -0.016 | -0.0553 | 0 | -0.0005 | 0.0017 | -0.0841 | -0.0154 | -0.0187 | 0.0466 | 0.0277
5 | CN(CCO)CC[C@H](CSc1ccccc1)Nc1ccc(S(=O)(=O)NC(=O)c2ccc(N3CCC([C@@H](O)c4ccccc4-c4ccc(Cl)cc4)CC3)cc2)cc1S(=O)(=O)C(F)(F)F [AZD4320] + C1CN(CCC1(C(=O)N[C@@H](CCO)C2=CC=C(C=C2)Cl)N)C3=NC=NC4=C3C=CN4 [Capivasertib] (first compound max 1 µM, 7x7, partner max 3 µM) | 0.0193 | 0.0177 | -0.0189 | -0.0402 | -0.0048 | -0.0459 | -0.0306 | -0.0487 | 0.006 | -0.0369 | -0.081 | 0.0094 | -0.0706 | -0.0176 | -0.0546 | -0.0413 | -0.0377 | -0.0536 | -0.0496 | -0.0146
6 | CN(CCO)CC[C@H](CSc1ccccc1)Nc1ccc(S(=O)(=O)NC(=O)c2ccc(N3CCC([C@@H](O)c4ccccc4-c4ccc(Cl)cc4)CC3)cc2)cc1S(=O)(=O)C(F)(F)F [AZD4320] + CN(C)CCCOc1ccc(-c2ccc3ncc4c(c3c2)n(C2CCOCC2)c(=O)n4C)cn1 [AZD0156] (first compound max 1 µM, 7x7, partner max 1 µM) | -0.0203 | 0.0031 | 0.0015 | -0.0129 | -0.0244 | 0.0392 | -0.022 | -0.0527 | -0.0171 | -0.0472 | -0.0276 | 0.0037 | -0.0513 | -0.0259 | -0.0377 | -0.0238 | -0.0321 | -0.0539 | -0.0216 | 0.0464
7 | CN(CCO)CC[C@H](CSc1ccccc1)Nc1ccc(S(=O)(=O)NC(=O)c2ccc(N3CCC([C@@H](O)c4ccccc4-c4ccc(Cl)cc4)CC3)cc2)cc1S(=O)(=O)C(F)(F)F [AZD4320] + C[C@@H](Nc1cc(F)cc(F)c1)c1cc(C(=O)N(C)C)cc2c(=O)cc(N3CCOCC3)oc12 [AZD8186] (first compound max 1 µM, 7x7, partner max 3 µM) | 0.012 | 0.0509 | -0.0239 | 0.0262 | -0.014 | 0.0718 | 0.0019 | -0.0133 | 0.0115 | 0.0033 | -0.0422 | -0.0354 | 0.0385 | -0.0197 | 0.0459 | -0.037 | 0.0156 | 0.0583 | -0.0541 | 0.0393
